Data reported in patent publication US8273890B2 (4SC AG, priority 2007, dated 2012).

target: T1, recombinant Plk1 protein (Homo sapiens, UniProt P53350); test: Plk1 kinase activity inhibition assay (33P-ATP, alpha casein substrate, flash plates); format: biochemical; conditions: enzymatic assay, 100 nM Li-ATP, 80 minutes at 30° C.
T1 construct: histidine tag (N); made in house; host or cells: SF9 insect cells
Experimental: The inhibition of Plk1 kinase activity can be measured using recombinant Plk1 protein expressed as an N-terminally histidine-tagged protein in SF9 insect cells and alpha casein as substrate. The Plk1 assay is run in 96 well plates by incubating 50 to 100 ng per well recombinant Plk1, 500 ng per well alpha casein (Sigma, # C-6780) as substrate, 10 μl of compound of invention (test compounds were dissolved as 20 mM solutions in dimethylsulfoxide (DMSO) and subsequently diluted), and 100 nM Li-ATP (including ^33P-ATP) in 100 μl of reaction buffer ([…] HEPES, pH 7.5; 3 mM MgCl2; 3 mM MnCl2; 3 μM Na-Orthovanadat; 1 mM DTT; 1 μg/ml PEG 8000) for 80 minutes at 30° C. The reactions are terminated by adding 100 μl stopping buffer (2% H3PO4 for 5 minutes) and are washed 3 times with washing solution (0.9% NaCl). Determining ^33P incorporated into the protein substrate alpha casein, the detection is based on the adhesion of the phosphorylated protein to the surface of scintillator-coated flash plates (Perkin Elmer, USA; #SMP-200). Phosphorylation of alpha casein is measured by counting the radioactivity bound to the plate for 60 sec. using a plate reader (Perkin Elmer, USA; Wallac Microbeta). By this method, the IC50 value of the Plk1 inhibition is determined as described above.

T1 sequence (P53350 whole entry): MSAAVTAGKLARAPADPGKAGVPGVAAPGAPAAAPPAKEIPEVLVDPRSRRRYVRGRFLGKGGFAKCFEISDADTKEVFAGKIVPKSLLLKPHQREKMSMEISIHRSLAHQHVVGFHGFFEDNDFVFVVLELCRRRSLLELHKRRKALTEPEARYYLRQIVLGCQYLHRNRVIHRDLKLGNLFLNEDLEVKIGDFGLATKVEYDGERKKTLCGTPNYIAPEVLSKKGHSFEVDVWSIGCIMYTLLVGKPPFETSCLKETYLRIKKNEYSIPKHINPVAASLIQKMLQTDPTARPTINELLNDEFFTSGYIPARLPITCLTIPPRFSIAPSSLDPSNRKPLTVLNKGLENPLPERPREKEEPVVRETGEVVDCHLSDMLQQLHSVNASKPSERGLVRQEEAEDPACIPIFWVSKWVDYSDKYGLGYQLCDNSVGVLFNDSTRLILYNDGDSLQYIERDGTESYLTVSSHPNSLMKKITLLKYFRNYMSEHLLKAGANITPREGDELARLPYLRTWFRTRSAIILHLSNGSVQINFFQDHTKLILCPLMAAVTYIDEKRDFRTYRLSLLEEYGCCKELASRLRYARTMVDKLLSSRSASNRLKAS

IC50 | Structure (SMILES)
< 10 nM | C[C@@H](Oc1cc(-n2cnc3cnc(CN4CCN(CCO)CC4)cc32)sc1C(N)=O)c1ccccc1C(F)(F)F [Example 61, 5-(6-{[4-(2-hydroxyethyl)piperazin-1-yl]methyl}-1H-imidazo[4,5-c]pyridin-1-yl)-3-{(1R)-1-[2-(trifluoromethyl)phenyl]ethoxy}thiophene-2-carboxamide]
10 to 100 nM | C[C@@H](Oc1cc(-n2cnc3cnc(CN4CCOCC4)cc32)sc1C(N)=O)c1ccccc1C(F)(F)F [Example 62, 5-[6-(morpholin-4-ylmethyl)-1H-imidazo[4,5-c]pyridin-1-yl]-3-{(1R)-1-[2-(trifluoromethyl)phenyl]ethoxy}thiophene-2-carboxamide]
10 to 100 nM | C[C@@H](Oc1cc(-n2cnc3cnc(CN4CCS(=O)(=O)CC4)cc32)sc1C(N)=O)c1ccccc1C(F)(F)F [Example 63, 5-{6-[(1,1-dioxidothiomorpholin-4-yl)methyl]-1H-imidazo[4,5-c]pyridin-1-yl}-3-{(1R)-1-[2-(trifluoromethyl)phenyl]ethoxy}thiophene-2-carboxamide]
< 10 nM | C[C@@H](Oc1cc(-n2cnc3cnc(CN4CCC(O)CC4)cc32)sc1C(N)=O)c1ccccc1C(F)(F)F [Example 64, 5-{6-[(4-hydroxypiperidin-1-yl)methyl]-1H-imidazo[4,5-c]pyridin-1-yl}-3-{(1R)-1-[2-(trifluoromethyl)phenyl]ethoxy}thiophene-2-carboxamide]
< 10 nM | C[C@@H](Oc1cc(-n2cnc3cnc(CN4CCC(N(C)C)CC4)cc32)sc1C(N)=O)c1ccccc1C(F)(F)F [Example 65, 5-(6-{[4-(dimethylamino)piperidin-1-yl]methyl}-1H-imidazo[4,5-c]pyridin-1-yl)-3-{(1R)-1-[2-(trifluoromethyl)phenyl]ethoxy}thiophene-2-carboxamide]
< 10 nM | C[C@@H](Oc1cc(-n2cnc3cnc(CN4CCN(S(C)(=O)=O)CC4)cc32)sc1C(N)=O)c1ccccc1C(F)(F)F [Example 66, 5-(6-{[4-(methylsulfonyl)piperazin-1-yl]methyl}-1H-imidazo[4,5-c]pyridin-1-yl)-3-{(1R)-1-[2-(trifluoromethyl)phenyl]ethoxy}thiophene-2-carboxamide]
< 10 nM | C[C@@H](Oc1cc(-n2cnc3cnc(CN4CCN(C(N)=O)CC4)cc32)sc1C(N)=O)c1ccccc1C(F)(F)F [Example 67, 4-{[1-(5-carbamoyl-4-{(1R)-1-[2-(trifluoromethyl)phenyl]ethoxy}-2-thienyl)-1H-imidazo[4,5-c]pyridin-6-yl]methyl}piperazine-1-carboxamide]
< 10 nM | C[C@@H](Oc1cc(-n2cnc3cnc(CN4CCN(C(=O)N(C)C)CC4)cc32)sc1C(N)=O)c1ccccc1C(F)(F)F [Example 68, 4-{[1-(5-carbamoyl-4-{(1R)-1-[2-(trifluoromethyl)phenyl]ethoxy}-2-thienyl)-1H-imidazo[4,5-c]pyridin-6-yl]methyl}-N,N-dimethylpiperazine-1-carboxamide]
< 10 nM | COCCN1CCN(Cc2cc3c(cn2)ncn3-c2cc(O[C@H](C)c3ccccc3C(F)(F)F)c(C(N)=O)s2)CC1 [Example 69, 5-(6-{[4-(2-methoxyethyl)piperazin-1-yl]methyl}-1H-imidazo[4,5-c]pyridin-1-yl)-3-{(1R)-1-[2-(trifluoromethyl)phenyl]ethoxy}thiophene-2-carboxamide]
10 to 100 nM | C[C@@H](Oc1cc(-n2cnc3cnc(CN4CCN(CCN(C)C)CC4)cc32)sc1C(N)=O)c1ccccc1C(F)(F)F [Example 70, 5-[6-({4-[2-(dimethylamino)ethyl]piperazin-1-yl}methyl)-1H-imidazo[4,5-c]pyridin-1-yl]-3-{(1R)-1-[2-(trifluoromethyl)phenyl]ethoxy}thiophene-2-carboxamide]
10 to 100 nM | C[C@@H](Oc1cc(-n2cnc3cnc(CN4CCN(S(=O)(=O)N(C)C)CC4)cc32)sc1C(N)=O)c1ccccc1C(F)(F)F [Example 71, 5-[6-({4-[(dimethylamino)sulfonyl]piperazin-1-yl}methyl)-1H-imidazo[4,5-c]pyridin-1-yl]-3-{(1R)-1-[2-(trifluoromethyl)phenyl]ethoxy}thiophene-2-carboxamide]
< 10 nM | C[C@@H](Oc1cc(-n2cnc3cnc(CN4CCN(C)C(=O)C4)cc32)sc1C(N)=O)c1ccccc1C(F)(F)F [Example 72, 5-{6-[(4-methyl-3-oxopiperazin-1-yl)methyl]-1H-imidazo[4,5-c]pyridin-1-yl}-3-{(1R)-1-[2-(trifluoromethyl)phenyl]ethoxy}thiophene-2-carboxamide]
< 10 nM | C[C@@H](Oc1cc(-n2cnc3cnc(CNC4CCN(C)CC4)cc32)sc1C(N)=O)c1ccccc1C(F)(F)F [Example 73, 5-(6-{[(1-methylpiperidin-4-yl)amino]methyl}-1H-imidazo[4,5-c]pyridin-1-yl)-3-{(1R)-1-[2-(trifluoromethyl)phenyl]ethoxy}thiophene-2-carboxamide]
< 10 nM | CC1CN(Cc2cc3c(cn2)ncn3-c2cc(O[C@H](C)c3ccccc3C(F)(F)F)c(C(N)=O)s2)CCN1C (stereo partly drawn) [Example 74, 5-{6-[(3,4-dimethylpiperazin-1-yl)methyl]-1H-imidazo[4,5-c]pyridin-1-yl}-3-{(1R)-1-[2-(trifluoromethyl)phenyl]ethoxy}thiophene-2-carboxamide]
10 to 100 nM | C[C@@H](Oc1cc(-n2cnc3cnc(CN4CCN(c5ccncc5)CC4)cc32)sc1C(N)=O)c1ccccc1C(F)(F)F [Example 75, 5-{6-[(4-pyridin-4-ylpiperazin-1-yl)methyl]-1H-imidazo[4,5-c]pyridin-1-yl}-3-{(1R)-1-[2-(trifluoromethyl)phenyl]ethoxy}thiophene-2-carboxamide]
< 10 nM | CN1CCN(Cc2cc3c(cn2)ncn3-c2cc(OC(c3ccccc3Cl)C(F)(F)F)c(C(N)=O)s2)CC1 (stereo not drawn) [Example 76, 3-[1-(2-chlorophenyl)-2,2,2-trifluoroethoxy]-5-{6-[(4-methylpiperazin-1-yl)methyl]-1H-imidazo[4,5-c]pyridin-1-yl}thiophene-2-carboxamide]
10 to 100 nM | C[C@@H](Oc1cc(-n2cnc3cnc(CN4CCN(c5ncccn5)CC4)cc32)sc1C(N)=O)c1ccccc1C(F)(F)F [Example 77, 5-{6-[(4-pyrimidin-2-ylpiperazin-1-yl)methyl]-1H-imidazo[4,5-c]pyridin-1-yl}-3-{(1R)-1-[2-(trifluoromethyl)phenyl]ethoxy}thiophene-2-carboxamide]
10 to 100 nM | C[C@@H](Oc1cc(-n2cnc3cnc(CN4CCN(C(=O)c5ccccc5)CC4)cc32)sc1C(N)=O)c1ccccc1C(F)(F)F [Example 78, 5-{6-[(4-benzoylpiperazin-1-yl)methyl]-1H-imidazo[4,5-c]pyridin-1-yl}-3-{(1R)-1-[2-(trifluoromethyl)phenyl]ethoxy}thiophene-2-carboxamide]
10 to 100 nM | C[C@@H](Oc1cc(-n2cnc3cnc(CN4CCN(Cc5ccccc5)CC4)cc32)sc1C(N)=O)c1ccccc1C(F)(F)F [Example 79, 5-{6-[(4-benzylpiperazin-1-yl)methyl]-1H-imidazo[4,5-c]pyridin-1-yl}-3-{(1R)-1-[2-(trifluoromethyl)phenyl]ethoxy}thiophene-2-carboxamide]
10 to 100 nM | C[C@@H](Oc1cc(-n2cnc3cnc(CN4CCN(CCN5CCOCC5)CC4)cc32)sc1C(N)=O)c1ccccc1C(F)(F)F [Example 80, 5-(6-{[4-(2-morpholin-4-ylethyl)piperazin-1-yl]methyl}-1H-imidazo[4,5-c]pyridin-1-yl)-3-{(1R)-1-[2-(trifluoromethyl)phenyl]ethoxy}thiophene-2-carboxamide]
10 to 100 nM | CC(=O)N1CCCN(Cc2cc3c(cn2)ncn3-c2cc(O[C@H](C)c3ccccc3C(F)(F)F)c(C(N)=O)s2)CC1 [Example 81, 5-{6-[(4-acetyl-1,4-diazepan-1-yl)methyl]-1H-imidazo[4,5-c]pyridin-1-yl}-3-{(1R)-1-[2-(trifluoromethyl)phenyl]ethoxy}thiophene-2-carboxamide]
10 to 100 nM | C[C@@H](Oc1cc(-n2cnc3cnc(CN4CCN(CCC#N)CC4)cc32)sc1C(N)=O)c1ccccc1C(F)(F)F [Example 82, 5-(6-{[4-(2-cyanoethyl)piperazin-1-yl]methyl}-1H-imidazo[4,5-c]pyridin-1-yl)-3-{(1R)-1-[2-(trifluoromethyl)phenyl]ethoxy}thiophene-2-carboxamide]
10 to 100 nM | CC1CN(Cc2cc3c(cn2)ncn3-c2cc(O[C@H](C)c3ccccc3C(F)(F)F)c(C(N)=O)s2)C(C)CN1 (stereo partly drawn) [Example 83, 5-{6-[(2,5-dimethylpiperazin-1-yl)methyl]-1H-imidazo[4,5-c]pyridin-1-yl}-3-{(1R)-1-[2-(trifluoromethyl)phenyl]ethoxy}thiophene-2-carboxamide]
10 to 100 nM | C[C@@H](Oc1cc(-n2cnc3cnc(CN4CCN(c5cnccn5)CC4)cc32)sc1C(N)=O)c1ccccc1C(F)(F)F [Example 84, 5-{6-[(4-pyrazin-2-ylpiperazin-1-yl)methyl]-1H-imidazo[4,5-c]pyridin-1-yl}-3-{(1R)-1-[2-(trifluoromethyl)phenyl]ethoxy}thiophene-2-carboxamide]
